Laboratory results from patent US11498899B2, “Nitrone herbicides” (FMC Corporation, priority 2016, dated 2022).

Legend:
corn (Zea mays) = assay: Test A postemergence, visual injury rating 0-100; assay type: in vivo; settings: 0 to 100 scale
kochia (Kochia scoparia) [1] = assay: Test A postemergence, visual injury rating 0-100; assay type: in vivo; settings: 0 to 100 scale
[2] = tested on: wheat (Triticum aestivum); assay: Test A postemergence, visual injury rating 0-100; assay type: in vivo; settings: 0 to 100 scale
[3] = tested on: ragweed (common ragweed, Ambrosia elatior); assay: Test A postemergence, visual injury rating 0-100; assay type: in vivo; settings: 0 to 100 scale
[4] = tested on: ryegrass, Italian (Italian ryegrass, Lolium multiflorum); assay: Test A postemergence, visual injury rating 0-100; assay type: in vivo; settings: 0 to 100 scale
[5] = tested on: foxtail, giant (giant foxtail, Setaria faberii); assay: Test A postemergence, visual injury rating 0-100; assay type: in vivo; settings: 0 to 100 scale
[6] = tested on: pigweed (Amaranthus retroflexus); assay: Test A postemergence, visual injury rating 0-100; assay type: in vivo; settings: 0 to 100 scale
[7] = tested on: galium (catchweed bedstraw, Galium aparine); assay: Test A postemergence, visual injury rating 0-100; assay type: in vivo; settings: 0 to 100 scale
[8] = tested on: blackgrass (Alopecurus myosuroides); assay: Test A postemergence, visual injury rating 0-100; assay type: in vivo; settings: 0 to 100 scale
[9] = tested on: barnyardgrass (Echinochloa crus-galli); assay: Test A postemergence, visual injury rating 0-100; assay type: in vivo; settings: 0 to 100 scale
[10] = tested on: barnyardgrass (Echinochloa crus-galli); assay: Test A preemergence, visual injury rating 0-100 (0 no effect, 100 complete control); assay type: in vivo
rice (Oryza sativa) = assay: Test B flooded paddy test, visual rating 0-100 (0 no effect, 100 complete control); settings: Flood, 250 g ai/ha, applied to paddy water, rated after 13 to 15 days
kochia (Kochia scoparia) [11] = assay: Test A preemergence, visual injury rating 0-100; assay type: in vivo
[12] = tested on: ragweed (common ragweed, Ambrosia elatior); assay: Test A preemergence, visual injury rating 0-100; assay type: in vivo
[13] = tested on: ryegrass, Italian (Italian ryegrass, Lolium multiflorum); assay: Test A preemergence, visual injury rating 0-100; assay type: in vivo
[14] = tested on: foxtail, giant (giant foxtail, Setaria faberii); assay: Test A preemergence, visual injury rating 0-100; assay type: in vivo
[15] = tested on: pigweed (Amaranthus retroflexus); assay: Test A preemergence, visual injury rating 0-100; assay type: in vivo
[16] = tested on: barnyardgrass (Echinochloa crus-galli); assay: Test B flooded paddy test, visual rating 0-100; settings: Flood, 250 g ai/ha, applied to paddy water, rated after 13 to 15 days
[17] = tested on: ducksalad (Heteranthera limosa); assay: Test B flooded paddy test, visual rating 0-100; settings: Flood, 250 g ai/ha, applied to paddy water, rated after 13 to 15 days
[18] = 31 g ai/ha, 0 to 100 scale (0 no effect, 100 complete control), approx. 10 days

Row | Compound | Corn plant response rating (corn (Zea mays); 125 g ai/ha) | Kochia plant response rating (kochia (Kochia scoparia) [1]; 125 g ai/ha) | Wheat plant response rating ([2]; 125 g ai/ha) | Ragweed plant response rating ([3]; 125 g ai/ha) | Ryegrass, Italian plant response rating ([4]; 125 g ai/ha) | Foxtail, Giant plant response rating ([5]; 125 g ai/ha) | Pigweed plant response rating ([6]; 125 g ai/ha) | Galium plant response rating ([7]; 125 g ai/ha) | Blackgrass plant response rating ([8]; 125 g ai/ha) | Barnyardgrass plant response rating ([9]; 125 g ai/ha) | Barnyardgrass plant response rating (0 to 100 scale) ([10]; 125 g ai/ha) | Rice plant response rating (0 to 100 scale) (rice (Oryza sativa)) | Kochia plant response rating (0 to 100 scale) (kochia (Kochia scoparia) [11]; 125 g ai/ha) | Ragweed plant response rating (0 to 100 scale) ([12]; 125 g ai/ha) | Ryegrass, Italian plant response rating (0 to 100 scale) ([13]; 125 g ai/ha) | Foxtail, Giant plant response rating (0 to 100 scale) ([14]; 125 g ai/ha) | Pigweed plant response rating (0 to 100 scale) ([15]; 125 g ai/ha) | Barnyardgrass plant response rating (0 to 100 scale) [16] | Ducksalad plant response rating (0 to 100 scale) [17] | Corn plant response rating (corn (Zea mays); 500 g ai/ha) | other results
1 | CC1=[N+]([O-])C(C(=O)Nc2cccc(F)c2F)C(c2ccc(F)c(Oc3ccc(Cl)nc3)c2)C1 (racemic) [Compound 51] | 0 | 20 | 10 | 60 | 0 | 0 | 0 | 70 | 70 | 0 | 40 | 0 | 0 | 0 | 0 | 30 | 0 | 0 | 0 | – | Corn plant response rating (corn (Zea mays); 31 g ai/ha): 0; Kochia plant response rating (kochia (Kochia scoparia) [1]; 31 g ai/ha): 0; Wheat plant response rating ([2]; 31 g ai/ha): 0; Ragweed plant response rating ([3]; 31 g ai/ha): 0; Ryegrass, Italian plant response rating ([4]; 31 g ai/ha): 0; Foxtail, Giant plant response rating ([5]; 31 g ai/ha): 0; Pigweed plant response rating ([6]; 31 g ai/ha): 0; Galium plant response rating ([7]; 31 g ai/ha): 60; Blackgrass plant response rating ([8]; 31 g ai/ha): 0; Barnyardgrass plant response rating ([9]; 31 g ai/ha): 0; Barnyardgrass plant response rating [10, 18]: 0; Kochia plant response rating (kochia (Kochia scoparia) [11]; [18]): 0; Ragweed plant response rating [12, 18]: 0; Ryegrass, Italian plant response rating [13, 18]: 0; Foxtail, Giant plant response rating [14, 18]: 0; Pigweed plant response rating [15, 18]: 0
2 | CC1=[N+]([O-])C(C(=O)Nc2cccc(F)c2F)C(c2cccc(Oc3ccc(Cl)cn3)c2)C1 (racemic) [Compound 56] | 0 | 10 | 20 | 0 | 50 | 40 | 0 | 30 | 70 | 20 | 10 | 0 | 0 | 0 | 60 | 60 | 0 | 25 | 40 | 40 | Kochia plant response rating (kochia (Kochia scoparia) [1]; 500 g ai/ha): 20; Wheat plant response rating ([2]; 500 g ai/ha): 40; Ragweed plant response rating ([3]; 500 g ai/ha): 20; Ryegrass, Italian plant response rating ([4]; 500 g ai/ha): 80; Foxtail, Giant plant response rating ([5]; 500 g ai/ha): 40; Pigweed plant response rating ([6]; 500 g ai/ha): 30; Galium plant response rating ([7]; 500 g ai/ha): 50; Blackgrass plant response rating ([8]; 500 g ai/ha): 80; Barnyardgrass plant response rating ([9]; 500 g ai/ha): 60; Barnyardgrass plant response rating (0 to 100 scale) ([10]; 500 g ai/ha): 90; Kochia plant response rating (0 to 100 scale) (kochia (Kochia scoparia) [11]; 500 g ai/ha): 0; Ragweed plant response rating (0 to 100 scale) ([12]; 500 g ai/ha): 0; Ryegrass, Italian plant response rating (0 to 100 scale) ([13]; 500 g ai/ha): 70; Foxtail, Giant plant response rating (0 to 100 scale) ([14]; 500 g ai/ha): 90; Pigweed plant response rating (0 to 100 scale) ([15]; 500 g ai/ha): 0
3 | CC1=[N+]([O-])C(C(=O)Nc2cccc(F)c2F)C(c2cc(C)cc(C(F)(F)F)c2)C1 (centres unmarked) [Compound 92] | 70 | 30 | 70 | 0 | 60 | 70 | 20 | 50 | 70 | 70 | 90 | 0 | 0 | 0 | 80 | 90 | 30 | 70 | 25 | 80 | Kochia plant response rating (kochia (Kochia scoparia) [1]; 500 g ai/ha): 70; Wheat plant response rating ([2]; 500 g ai/ha): 80; Ragweed plant response rating ([3]; 500 g ai/ha): 70; Ryegrass, Italian plant response rating ([4]; 500 g ai/ha): 70; Foxtail, Giant plant response rating ([5]; 500 g ai/ha): 90; Pigweed plant response rating ([6]; 500 g ai/ha): 60; Galium plant response rating ([7]; 500 g ai/ha): 60; Blackgrass plant response rating ([8]; 500 g ai/ha): 70; Barnyardgrass plant response rating ([9]; 500 g ai/ha): 90; Barnyardgrass plant response rating (0 to 100 scale) ([10]; 500 g ai/ha): 90; Kochia plant response rating (0 to 100 scale) (kochia (Kochia scoparia) [11]; 500 g ai/ha): 50; Ragweed plant response rating (0 to 100 scale) ([12]; 500 g ai/ha): 70; Ryegrass, Italian plant response rating (0 to 100 scale) ([13]; 500 g ai/ha): 90; Foxtail, Giant plant response rating (0 to 100 scale) ([14]; 500 g ai/ha): 90; Pigweed plant response rating (0 to 100 scale) ([15]; 500 g ai/ha): 80
4 | COc1cc(C2CC(C)=[N+]([O-])C2C(=O)Nc2cccc(F)c2F)ccc1C(F)(F)F (centres unmarked) [Compound 100] | 30 | 20 | 20 | 20 | 0 | 60 | 0 | 70 | 30 | 70 | 90 | 0 | 40 | 0 | 0 | 90 | 0 | 0 | 0 | 70 | Kochia plant response rating (kochia (Kochia scoparia) [1]; 500 g ai/ha): 70; Wheat plant response rating ([2]; 500 g ai/ha): 50; Ragweed plant response rating ([3]; 500 g ai/ha): 70; Ryegrass, Italian plant response rating ([4]; 500 g ai/ha): 70; Foxtail, Giant plant response rating ([5]; 500 g ai/ha): 90; Pigweed plant response rating ([6]; 500 g ai/ha): 40; Galium plant response rating ([7]; 500 g ai/ha): 80; Blackgrass plant response rating ([8]; 500 g ai/ha): 70; Barnyardgrass plant response rating ([9]; 500 g ai/ha): 90; Barnyardgrass plant response rating (0 to 100 scale) ([10]; 500 g ai/ha): 90; Kochia plant response rating (0 to 100 scale) (kochia (Kochia scoparia) [11]; 500 g ai/ha): 80; Ragweed plant response rating (0 to 100 scale) ([12]; 500 g ai/ha): 80; Ryegrass, Italian plant response rating (0 to 100 scale) ([13]; 500 g ai/ha): 90; Foxtail, Giant plant response rating (0 to 100 scale) ([14]; 500 g ai/ha): 90; Pigweed plant response rating (0 to 100 scale) ([15]; 500 g ai/ha): 60
